Consider ten molecules from patent US11098016B2, “Indazole derivatives useful as glucagon receptor antagonists” (JANSSEN PHARMACEUTICA NV, priority 2016, dated 2021).

As a reminder, the Ki is a measure of affinity in units of concentration, obtained from inhibition or displacement. Higher therefore signals a looser hold on the target.

The first test deals with T1, human GCGR (Homo sapiens, UniProt P47871).
T1 construct: expressed in transfected cells; host or cells: HEK293 (hGluc-1HEK), pcDNA3.1, G418 selection
T1 sequence (P47871 26-477): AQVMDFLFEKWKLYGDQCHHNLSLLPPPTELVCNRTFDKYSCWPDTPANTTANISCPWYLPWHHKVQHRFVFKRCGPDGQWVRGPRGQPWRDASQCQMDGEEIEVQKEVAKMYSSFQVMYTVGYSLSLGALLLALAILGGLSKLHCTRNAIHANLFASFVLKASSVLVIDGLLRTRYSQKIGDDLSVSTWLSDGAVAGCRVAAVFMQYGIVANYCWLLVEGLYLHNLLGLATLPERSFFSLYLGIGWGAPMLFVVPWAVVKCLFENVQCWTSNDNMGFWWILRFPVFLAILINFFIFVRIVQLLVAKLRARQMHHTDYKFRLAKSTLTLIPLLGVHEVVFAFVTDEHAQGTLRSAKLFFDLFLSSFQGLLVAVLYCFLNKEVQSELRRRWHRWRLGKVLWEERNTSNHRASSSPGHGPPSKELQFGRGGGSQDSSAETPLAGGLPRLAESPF
Kind of test: Cellular functional assay, cAMP readout: inhibition of glucagon stimulated cAMP. Type of test: cell-based.
Details: not given
The protocol: IC50 Values in Cellular Functional Assays: cAMP Readout
Full-length human GCGR (Accession Number: NM000160) subcloned into pcDNA3.1 was stably transfected into HEK293 cells (hGluc-1HEK) and maintained under G418 selection (500 μg/mL). Cell cultures were maintained in DMEM/F12 media supplemented with 10% FBS and 1% GlutaMax™ Supplement (Available from ThermoFisher Scientific, catalog #35050061). Glucagon stimulated cAMP was quantified using LANCE technology as per manufacturer instructions. On the day of the experiment, spent media was removed and cells were washed with Hank's Buffered Saline solution (HBSS), and cells harvested with non-enzymatic cell dissociation solution, then washed once with HBSS. Cells were re-suspended in stimulation buffer at a concentration of 0.83×10^6 cells/ml and cAMP detection antibody was added. 6 μl/well of this solution was then dispensed in a 384 well plate (cell density 5000 cells/well). Test compound was serially diluted in DMSO and 50 nl were dispensed on top of the cell solution and allowed to incubate for 30 minutes. 6 μl of a 2× glucagon solution (final concentration in assay 100 pM) was then added and the reaction was terminated after 5 minutes with the addition of detection mix. The resulting mixture was incubated, protected from light for 1.5 h. cAMP levels were quantified by TR-FRET in an EnVision instrument against a known standard. IC50's were generated by using a non-linear regression macro driven in Excel and converted to Ki values.
The molecule `COCCC(c1ccc(C(=O)NCCC(=O)O)cc1)n1cc2cc(-c3ccc(C(F)(F)F)cc3)ccc2n1` (stereo not shown) [Compound 202] returned a Ki of 1100 nM.
Same read-out and setting: in the case of `CC(C)CC(c1ccc(CNCCC(=O)O)cc1)n1ncc2cc(-c3cc(Cl)cc(Cl)c3)ccc21` (stereo not shown) [Compound 118, 3-((4-(1-(5-(3,5-Dichlorophenyl)-1H-indazol-1-yl)-3-methylbutyl)benzyl)amino)propanoic Acid] it was 2250 nM; in that of `COc1ccc(-c2ccc3c(cnn3C(CC(C)C)c3ccc(CNCCC(=O)O)cc3)c2)cc1` (stereo not shown) [Compound 38, 3-((4-(1-(5-(4-Methoxyphenyl)-1H-indazol-1-yl)-3-methylbutyl)benzyl)amino)propanoic Acid], 650 nM; in that of `Cc1cc(Cl)ccc1-c1ccc2nn(C(CCC3CCCCC3)c3ccc(C(=O)NCCC(=O)O)nc3)cc2c1` (stereo not shown) [Compound 184], 71 nM.
`O=C(O)CCNC(=O)c1ccc(C(CCc2ccccc2)n2ncc3cc(-c4ccc(C(F)(F)F)cc4)ccc32)cc1` (stereo not shown) [Compound 142] returned a Ki of 850 nM.
Regarding `CC(C)CC(c1ccc(CNCCC(=O)O)cc1)n1ncc2cc(-c3ccc(OC(F)(F)F)cc3)ccc21` (stereo not shown) [Compound 10, 3-((4-(3-Methyl-1-(5-(4-(trifluoromethoxy)phenyl)-1H-indazol-1-yl)butyl)benzyl)amino)propanoic Acid], the Ki came to 285 nM.
Same read-out and setting: to `O=C(O)CCNC(=O)c1ccc(C(CCc2ccccc2)n2cc3cc(-c4ccc(C(F)(F)F)cc4)ccc3n2)cc1` (stereo not shown) [Compound 104] belongs 145 nM.
The molecule `Cc1cc(C(F)(F)F)ccc1-c1ccc2c(cnn2C(CC(C)C)c2ccc(CNCCC(=O)O)cc2)c1` (stereo not shown) [Compound 84, 3-((4-(3-Methyl-1-(5-(2-methyl-4-(trifluoromethyl)phenyl)-1H-indazol-1-yl)butyl)benzyl)amino)propanoic Acid] gave a Ki of 85 nM.
Same read-out and setting: to `O=C(O)CCNC(=O)c1ccc(C(CCC2CCCCC2)n2cc3cc(-c4ccc(C(F)(F)F)cc4)ccc3n2)cn1` (stereo not shown) [Compound 186] belongs 275 nM.

Another test deals with glucagon receptor. Description: Glucagon challenge in vivo assay measuring blood glucose (normal dog glucagon challenge test). The following applies: male beagle dogs; 10 mg/kg oral gavage. As for the experimental part:
Glucagon Challenge In Vivo Assay Measuring Blood Glucose
The efficacy of a glucagon receptor antagonist was evaluated using a normal dog glucagon challenge test. Male beagle dogs were overnight fasted prior to the study. Test compound (at 3 mg/kg and 10 mg/kg for Compound #196 and at 10 mg/kg for Compounds #180, #248 and #253) or vehicle (0.5% hydroxypropyl methylcellulose) was dosed via oral gavage. Ninety minutes later, the dogs (1.5 years old, ˜9 Kg) were submitted to a glucagon challenge test by a single intramuscular injection of glucagon (Glucagon, rDNA origin, Eli Lilly, Indianapolis, Ind.) at dose of […]. Blood glucose levels were determined at times −10 min, 0 min (on challenge), 10 min, 20 min, 30 min, and 60 min after glucagon injection.
In the case of `Cc1c(-c2ccc(C(F)(F)F)cc2Cl)ccc2nn([C@@H](CC(C)C)c3ccc(C(=O)NCCC(=O)O)cc3)cc12` [Compound 180, 3-[[4-[(1S)-1-[5-[2-Chloro-4-(trifluoromethyl)phenyl]-4-methyl-indazol-2-yl]-3-methyl-butyl]benzoyl]amino]propanoic Acid], the “blood glucose levels during glucagon challenge time compared with vehicle treated group” value was “markedly reduced blood glucose levels”.
